Laboratory results: patent US7166472B2, “Method for the identification of agents that inhibit or promote cataracts and uses thereof” (The General Hospital Corporation, priority 2000, dated 2007)

T1: recombinant human αB-crystallin (Homo sapiens, UniProt P02511)
T1 construct: gift of Dr. J. Liang, Brigham and Women's Hospital
T1 sequence (P02511 1-175): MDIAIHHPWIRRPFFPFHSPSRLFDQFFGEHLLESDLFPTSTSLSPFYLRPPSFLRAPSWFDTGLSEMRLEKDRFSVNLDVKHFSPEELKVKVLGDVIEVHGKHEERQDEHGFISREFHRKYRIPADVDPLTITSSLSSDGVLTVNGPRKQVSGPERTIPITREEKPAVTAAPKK

T2: αB-crystallin (Bos taurus, UniProt P02510)
T2 sequence (P02510 1-175): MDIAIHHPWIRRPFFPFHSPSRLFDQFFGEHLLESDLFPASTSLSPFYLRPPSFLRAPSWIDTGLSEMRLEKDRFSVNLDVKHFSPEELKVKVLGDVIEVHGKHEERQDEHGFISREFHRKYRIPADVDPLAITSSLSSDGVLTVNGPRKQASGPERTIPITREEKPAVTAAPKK


Tests used:
[1] = Hydrogen peroxide assay (DCF fluorometric); type: biochemical; conditions: Cu(II) 1 μM; catalase 1000 U/ml or TETA 200 μM
Description: Hydrogen Peroxide Assay—The fluorometric assay for hydrogen peroxide is based on the dichlorofluorescein diacetate (DCF) method (Molecular Probes, Eugene, Oreg.). The DCF solution (5 mM) in 100% ethanol was deacetylated in the presence of 0.01 M NaOH for 30 minutes and neutralized. Horseradish peroxidase (200 U/ml) was then added and the DCF concentration adjusted to 200 μM in PBS. The reaction solutions were carried out in PBS, pH 7.4, in a 96-well format plate (total volume=300 μL/well) and contained a test compound (KYN, 3-HK, 3-HAA, ANA, or ASC, each at 10 μM), deacetylated DCF (20 μM), and Cu(II)-glycine (1 μM) as indicated, incubated at 37° C. for 60 minutes. […] Abolition of the reading by co-incubation with catalase (1000 U/ml) was used for establishing H2O2 specificity. The fluorescent readings were recorded by a Packard FLURORCOUNT™ fluorescent plate reader with a 485 nm excitation filter and 530 nm emission filter. Concentrations were determined by comparison to a standard curve using reagent grade hydrogen peroxide in CHELEX™ chelating ion exchanae resin-treated PBS buffer, pH 7.4.
Reactions were conducted in the absence of added Cu(II), in the presence of added glycine-complexed Cu(II) (1 μM), in the presence of added glycine-complexed Cu(II) (1 μM) and catalase (1000 U/ml), or with added glycine-complexed Cu(II) (1 μM) and the copper chelator triethylenetetramine (TETA, 200 μM).

[2] = target: bovine serum albumin (BSA) (Bos taurus, UniProt P02769); conditions: 3-HK with Cu(II); TETA
bovine serum albumin (BSA), sequence (P02769 25-607): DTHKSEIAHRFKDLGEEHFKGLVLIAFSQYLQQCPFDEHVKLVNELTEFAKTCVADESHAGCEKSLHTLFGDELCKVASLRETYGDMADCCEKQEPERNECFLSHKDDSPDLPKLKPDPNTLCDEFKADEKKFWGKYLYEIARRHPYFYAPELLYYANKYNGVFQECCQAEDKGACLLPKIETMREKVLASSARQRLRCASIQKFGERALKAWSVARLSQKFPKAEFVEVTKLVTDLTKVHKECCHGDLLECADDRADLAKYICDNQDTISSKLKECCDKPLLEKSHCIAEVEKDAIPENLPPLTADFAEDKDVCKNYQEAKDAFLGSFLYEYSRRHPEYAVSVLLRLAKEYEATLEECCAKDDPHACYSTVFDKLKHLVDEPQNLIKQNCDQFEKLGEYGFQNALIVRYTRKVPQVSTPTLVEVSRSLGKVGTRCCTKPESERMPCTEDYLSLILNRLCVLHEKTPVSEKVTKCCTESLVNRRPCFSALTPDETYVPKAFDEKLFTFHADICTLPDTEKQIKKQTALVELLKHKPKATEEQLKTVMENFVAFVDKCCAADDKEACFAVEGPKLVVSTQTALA

[3] = target: T1, recombinant human αB-crystallin; test: Recombinant human αB-crystallin cross-linking (SDS-PAGE, silver stain); type: biochemical; conditions: TETA 200 μM
Description: Various solutions containing 3-HK (10 μM) or other kynurenine pathway metabolites (10 μM), Cu(II)-glycine (10 μM), Fe(III)-citrate (10 μM), and triethylenetetramine (TETA, 200 μM), were added in combinations as indicated. […] After incubation, aliquots of the total lens protein solutions were mixed with sample buffer containing 4% SDS and 5% β-mercaptoethanol, heated to 95° C. for 5 minutes, and loaded at 1 μg/lane on a 10–20% Tricine gel (Novex, San Diego, Calif.). […] For the experiments with recombinant αB-crystallin, aliquots of the protein solutions were mixed with sample running buffer containing NuPAGE sample buffer (Novex, San Diego, Calif.) and 10% β-mercaptoethanol, heated to 95° C. for 5 minutes, spun briefly, then loaded on a NuPAGE 4–12% Bis-Tris polyacrylamide gel at 375 ng/lane and electrophoresed with denaturing 3-(N-morpholino)propanesulfonic acid (MOPS)-SDS running buffer according to the manufacturer's recommendations.
To exclude the effects of other lens proteins on the observed findings in FIG. 5, these interactions with purified recombinant human αB-crystallin were examined.

[4] = Metal reduction assay, Cu(II) to Cu(I) (BC/BCA indicator); type: biochemical; conditions: chelator 250 μM
Description: Metal Reduction Assays—Assays were performed using a 96-well microtiter plate (Costar, Mass.). Test compounds from the kynurenine pathway (10 μM) or, as a positive control, ascorbic acid (ASC, 10 μM) were co-incubated with either Fe(III)-citrate (25 μM) and the Fe(II) indicator bathophenanthroline disulfonic acid (BP, 250 μM), or Cu(II)-glycine (25 μM) and the Cu(I) indicator bathocuproine disulfonic acid (BC) or bicinchoninic acid (BCA, 250 μM). Incubations were conducted in PBS, pH 7.4, at 37° C. in the dark for one hour. Absorbencies were then measured using a plate reader (SPECTRAmax Plus, Molecular Devices, CA) at the appropriate wavelengths: Fe(II)-BP complex at 535 nm (the known molar absorption coefficient, M535,=22140 M^−1 cm^−1), Cu(I)-BC complex at 483 nm, M483=12250 M^−1cm^−1), or Cu(I)-BCA complex at 562 nm, M562=7700 M^−1cm^−1). In control samples, absorbance from the metal ion and indicator in the absence of test compound and the absorbance of test compound in the presence of metal ions, but in the absence of indicator, were determined. The absorbencies from these controls were deducted from those obtained in the presence of the test compound, metal and indicator to yield the net absorbance (ΔA). Fe(II) or Cu(I) concentrations (μM) were calculated according to the formula: C(μM)=ΔA*10^6/Mλ.
The compounds comprising the kynurenine pathway (FIG. 1) were assayed for their ability to reduce […] and Cu(II) (FIG. 2A). […] Values represent the mean±SD for three independent measurements.

[5] = target: T2, αB-crystallin; test: αB-crystallin cross-linking in total calf lens protein (Western blot)
[6] = Metal reduction capacity of tanned calf lens α-crystallin, Fe(III); type: biochemical; conditions: α-crystallin preparation 100 μg/ml, Fe(III)-citrate 25 μM, one hour 37° C.
Description: (§1) Studies of Tanned Calf Lens Crystalin in Assay of Crystallin Protein for Metal Reduction Capacity—α-Crystallin (10 mg/ml) from calf lens was modified by reaction with 3-HK (100 μM), 3-HAA (100 μM), or ASC (100 μM) in PBS, ph 7.4, for 12 hours at 4° C. in the dark. Control samples were incubated with ascorbic acid (100 μM) or without added reductant. The tanning incubation solutions also contained triethylenetetramine (TETA, 200 μM) to prevent cross-linking of the protein. After incubation, free reductant was removed from the tanned α-crystallin preparations by exhaustive dialysis at 4EC in the dark utilizing PBS, pH 7.4, containing CHELEX™ 100 chelating ion exchange resin (BioRad, Hercules, Calif.). The various modified α-crystallin preparations (100 μg/ml) were co-incubated with either Cu(II)-glycine glycine (25 μM) or Fe(III)-citrate (25 μM) for one hour at 37° C. and assayed for metal reduction capacity using the BC and BP spectrophotometric assay as detailed above. Incubated and dialyzed α-crystallin (100 μg/ml) and untreated α-crystallin (100 μg/ml) preparations were used for procedural control.
(§2) 3-HK: α-crystallin reduced nearly 100% of the available Cu(II) and approximately 20% of the available Fe(III). 3-HAA: α-crystallin reduced approximately 65% of the available Cu(II).

[7] = Metal reduction capacity of tanned calf lens α-crystallin, Cu(II); type: biochemical; conditions: α-crystallin preparation 100 μg/ml, Cu(II)-glycine 25 μM, one hour 37° C.
Description: as §1, §2

Molecule | effect on hydrogen peroxide generation by 3-HK or 3-HAA [1] | effect on BSA protein depletion [2] | effect on 3-HAA Cu(II)-dependent oligomerization and loss of the monomer [3] | effect on cross-linking by Cu(II) and 3-HK [3] | effect on depletion of monomeric αB-crystallin by 3-HK and Cu(II) [3] | effect of chelator on metal reduction by 3-HK, 3-HAA and XA [4] | effect on 3-HK induced αB-crystallin cross-linking ([5]; TETA 200 μM co-incubation) | effect on depletion of monomeric αB-crystallin ([5]; co-incubated with 3-HK and Cu(II), TETA 200 μM) | reduction of available Fe(III) [6] | reduction of available Cu(II) [7]
NCCNCCNCCN [TETA, triethylenetetramine, reference compound] | abolished | abolished | reversed | substantially attenuated | completely reversed the depletion | abolished | abolished | reversed the depletion |  | 
α-Crystallin: unmodified α-crystallin from calf lens, procedural control (protein, UniProt P02470 1-173; P02510 1-175, looked up) Alpha-crystallin A chain: MDIAIQHPWFKRTLGPFYPSRLFDQFFGEGLFEYDLLPFLSSTISPYYRQSLFRTVLDSGISEVRSDRDKFVIFLDVKHFSPEDLTVKVQEDFVEIHGKHNERQDDHGYISREFHRRYRLPSNVDQSALSCSLSADGMLTFSGPKIPSGVDAGHSERAIPVSREEKPSSAPSS Alpha-crystallin B chain: MDIAIHHPWIRRPFFPFHSPSRLFDQFFGEHLLESDLFPASTSLSPFYLRPPSFLRAPSWIDTGLSEMRLEKDRFSVNLDVKHFSPEELKVKVLGDVIEVHGKHEERQDEHGFISREFHRKYRIPADVDPLAITSSLSSDGVLTVNGPRKQASGPERTIPITREEKPAVTAAPKK |  |  |  |  |  |  |  |  | negligible percentage | approximately 35%
3-HK: α-crystallin: calf lens α-crystallin modified (tanned) by reaction with 3-HK, free metabolite removed by dialysis (protein, UniProt P02470 1-173; P02510 1-175, looked up, modified with 3-hydroxykynurenine, calf lens α-crystallin modified (tanned) by reaction with 3-HK, free metabolite removed by dialysis) Alpha-crystallin A chain: MDIAIQHPWFKRTLGPFYPSRLFDQFFGEGLFEYDLLPFLSSTISPYYRQSLFRTVLDSGISEVRSDRDKFVIFLDVKHFSPEDLTVKVQEDFVEIHGKHNERQDDHGYISREFHRRYRLPSNVDQSALSCSLSADGMLTFSGPKIPSGVDAGHSERAIPVSREEKPSSAPSS Alpha-crystallin B chain: MDIAIHHPWIRRPFFPFHSPSRLFDQFFGEHLLESDLFPASTSLSPFYLRPPSFLRAPSWIDTGLSEMRLEKDRFSVNLDVKHFSPEELKVKVLGDVIEVHGKHEERQDEHGFISREFHRKYRIPADVDPLAITSSLSSDGVLTVNGPRKQASGPERTIPITREEKPAVTAAPKK |  |  |  |  |  |  |  |  | approximately 20% | ~100%
